Results: PubChem BioAssay AID2060601 (Molecular Pharmacology Branch, DTP, NCI, 2025)

Tested on: 874868-142-R-J2-PDC complex spheroids, growth % test/control
Experiment: Anticancer human tumor 874868-142-R-J2-PDC patient-derived head and neck squamous carcinoma cell line growth inhibition [CLK]
Settings: for IC50: curve of first compound; for viability, T/C: stronger effect = lower value
Procedure, shortened: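 Multi-cell-type spheroids combined patient-derived tumor cells with HUVEC endothelial cells and human mesenchymal stem cells. Paired agents were dosed in half-log steps down from about clinical Cmax, or from 10 microM where Cmax was unknown.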

[1] = second compound 0.0316 µM, first compound 0.0316 µM
[2] = second compound 0.0316 µM, first compound 0.1 µM
[3] = second compound 0.1 µM, first compound 0.0316 µM
[4] = second compound 0.1 µM, first compound 0.1 µM
[5] = second compound 0.316 µM, first compound 0.0316 µM
[6] = second compound 0.316 µM, first compound 0.1 µM
[7] = second compound 1 µM, first compound 0.0316 µM
[8] = second compound 1 µM, first compound 0.1 µM
[9] = second compound 3.16 µM, first compound 0.0316 µM
[10] = second compound 3.16 µM, first compound 0.1 µM
[11] = second compound 10 µM, first compound 0.0316 µM
[12] = second compound 10 µM, first compound 0.1 µM
[13] = second compound 0.0316 µM, first compound 0.316 µM
[14] = second compound 0.0316 µM, first compound 1 µM
[15] = second compound 0.0316 µM, first compound 3.16 µM
[16] = second compound 0.0316 µM, first compound 10 µM
[17] = second compound 0.1 µM, first compound 0.316 µM
[18] = second compound 0.1 µM, first compound 1 µM
[19] = second compound 0.1 µM, first compound 3.16 µM
[20] = second compound 0.1 µM, first compound 10 µM
[21] = second compound 0.316 µM, first compound 0.316 µM
[22] = second compound 0.316 µM, first compound 1 µM
[23] = second compound 0.316 µM, first compound 3.16 µM
[24] = second compound 0.316 µM, first compound 10 µM
[25] = second compound 1 µM, first compound 0.316 µM
[26] = second compound 1 µM, first compound 1 µM
[27] = second compound 1 µM, first compound 3.16 µM
[28] = second compound 1 µM, first compound 10 µM
[29] = second compound 3.16 µM, first compound 0.316 µM
[30] = second compound 3.16 µM, first compound 1 µM
[31] = second compound 3.16 µM, first compound 3.16 µM
[32] = second compound 3.16 µM, first compound 10 µM
[33] = second compound 10 µM, first compound 0.316 µM
[34] = second compound 10 µM, first compound 1 µM
[35] = second compound 10 µM, first compound 3.16 µM
[36] = second compound 10 µM, first compound 10 µM
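Note: spheroids exposed to the compounds for 7 days.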
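Throughout, for viability, T/C: 100% = DMSO vehicle control viability.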

## Cn1ncnc1[C@H]1c2n[nH]c(=O)c3cc(F)cc(c23)N[C@@H]1c1ccc(F)cc1 + CN1CCN(c2cc(C(=O)Nc3cc4cc(-c5cnn(C)c5)ccc4cn3)ccn2)CC1
Second compound 0.0316 µM
  IC50: > 100 nM
Second compound 0.1 µM
  IC50: 91.4 nM
Second compound 0.316 µM
  IC50: < 0.316 nM
Second compound 1 µM
  IC50: < 0.316 nM
Second compound 3.16 µM
  IC50: < 0.316 nM
Second compound 10 µM
  IC50: < 0.316 nM
Second compound 0.0316 µM, first compound 0.000316 µM
  viability, T/C: 99.4%
Second compound 0.0316 µM, first compound 0.001 µM
  viability, T/C: 83.8%
Second compound 0.0316 µM, first compound 0.00316 µM
  viability, T/C: 80%
Second compound 0.0316 µM, first compound 0.01 µM
  viability, T/C: 89.2%
[1]
  viability, T/C: 62.2%
[2]
  viability, T/C: 68.2%
Second compound 0.1 µM, first compound 0.000316 µM
  viability, T/C: 83.9%
Second compound 0.1 µM, first compound 0.001 µM
  viability, T/C: 70.3%
Second compound 0.1 µM, first compound 0.00316 µM
  viability, T/C: 69.8%
Second compound 0.1 µM, first compound 0.01 µM
  viability, T/C: 66.6%
[3]
  viability, T/C: 43.8%
[4]
  viability, T/C: 53.8%
Second compound 0.316 µM, first compound 0.000316 µM
  viability, T/C: 17.1%
Second compound 0.316 µM, first compound 0.001 µM
  viability, T/C: 17.7%
Second compound 0.316 µM, first compound 0.00316 µM
  viability, T/C: 16.2%
Second compound 0.316 µM, first compound 0.01 µM
  viability, T/C: 11.9%
[5]
  viability, T/C: 18.8%
[6]
  viability, T/C: 15.2%
Second compound 1 µM, first compound 0.000316 µM
  viability, T/C: 0.34%
Second compound 1 µM, first compound 0.001 µM
  viability, T/C: 0.36%
Second compound 1 µM, first compound 0.00316 µM
  viability, T/C: 0.3%
Second compound 1 µM, first compound 0.01 µM
  viability, T/C: 0.19%
[7]
  viability, T/C: 0.26%
[8]
  viability, T/C: 0.38%
Second compound 3.16 µM, first compound 0.000316 µM
  viability, T/C: 0.15%
Second compound 3.16 µM, first compound 0.001 µM
  viability, T/C: 0.17%
Second compound 3.16 µM, first compound 0.00316 µM
  viability, T/C: 0.15%
Second compound 3.16 µM, first compound 0.01 µM
  viability, T/C: 0.18%
[9]
  viability, T/C: 0.12%
[10]
  viability, T/C: 0.29%
Second compound 10 µM, first compound 0.000316 µM
  viability, T/C: 0.11%
Second compound 10 µM, first compound 0.001 µM
  viability, T/C: 0.2%
Second compound 10 µM, first compound 0.00316 µM
  viability, T/C: 0.16%
Second compound 10 µM, first compound 0.01 µM
  viability, T/C: 0.18%
[11]
  viability, T/C: 0.2%
[12]
  viability, T/C: 0.2%

## Nc1ccn(C2OC(CO)C(O)C2(F)F)c(=O)n1 (stereo unspecified) + CN1CCN(c2cc(C(=O)Nc3cc4cc(-c5cnn(C)c5)ccc4cn3)ccn2)CC1
Second compound 0.0316 µM
  IC50: 489 nM
Second compound 0.1 µM
  IC50: 463 nM
Second compound 0.316 µM
  IC50: < 31.6 nM
Second compound 1 µM
  IC50: < 31.6 nM
Second compound 3.16 µM
  IC50: < 31.6 nM
Second compound 10 µM
  IC50: < 31.6 nM
[1]
  viability, T/C: 80.5%
[2]
  viability, T/C: 72.9%
[13]
  viability, T/C: 58.7%
[14]
  viability, T/C: 37.6%
[15]
  viability, T/C: 20.5%
[16]
  viability, T/C: 26.1%
[3]
  viability, T/C: 62.2%
[4]
  viability, T/C: 70.5%
[17]
  viability, T/C: 61.4%
[18]
  viability, T/C: 26.8%
[19]
  viability, T/C: 19.9%
[20]
  viability, T/C: 24.1%
[5]
  viability, T/C: 14.3%
[6]
  viability, T/C: 14.6%
[21]
  viability, T/C: 11.8%
[22]
  viability, T/C: 9.83%
[23]
  viability, T/C: 11.6%
[24]
  viability, T/C: 11.8%
[7]
  viability, T/C: 0.24%
[8]
  viability, T/C: 0.22%
[25]
  viability, T/C: 0.33%
[26]
  viability, T/C: 0.18%
[27]
  viability, T/C: 0.28%
[28]
  viability, T/C: 0.2%
[9]
  viability, T/C: 0.26%
[10]
  viability, T/C: 0.23%
[29]
  viability, T/C: 0.16%
[30]
  viability, T/C: 0.18%
[31]
  viability, T/C: 0.19%
[32]
  viability, T/C: 0.43%
[11]
  viability, T/C: 0.14%
[12]
  viability, T/C: 0.19%
[33]
  viability, T/C: 0.23%
[34]
  viability, T/C: 0.2%
[35]
  viability, T/C: 0.25%
[36]
  viability, T/C: 1.04%

## O=c1[nH]cc(F)c(=O)[nH]1 + CN1CCN(c2cc(C(=O)Nc3cc4cc(-c5cnn(C)c5)ccc4cn3)ccn2)CC1
Second compound 0.0316 µM
  IC50: 2320 nM
Second compound 0.1 µM
  IC50: 667 nM
Second compound 0.316 µM
  IC50: < 31.6 nM
Second compound 1 µM
  IC50: < 31.6 nM
Second compound 3.16 µM
  IC50: < 31.6 nM
Second compound 10 µM
  IC50: < 31.6 nM
[1]
  viability, T/C: 99.7%
[2]
  viability, T/C: 74.5%
[13]
  viability, T/C: 83.8%
[14]
  viability, T/C: 70.8%
[15]
  viability, T/C: 41.6%
[16]
  viability, T/C: 37%
[3]
  viability, T/C: 66.7%
[4]
  viability, T/C: 79%
[17]
  viability, T/C: 62.4%
[18]
  viability, T/C: 43.7%
[19]
  viability, T/C: 24.8%
[20]
  viability, T/C: 31%
[5]
  viability, T/C: 18.2%
[6]
  viability, T/C: 17.2%
[21]
  viability, T/C: 12.4%
[22]
  viability, T/C: 10.2%
[23]
  viability, T/C: 12.2%
[24]
  viability, T/C: 10.7%
[7]
  viability, T/C: 0.31%
[8]
  viability, T/C: 0.25%
[25]
  viability, T/C: 0.25%
[26]
  viability, T/C: 0.29%
[27]
  viability, T/C: 0.14%
[28]
  viability, T/C: 0.21%
[9]
  viability, T/C: 0.18%
[10]
  viability, T/C: 0.21%
[29]
  viability, T/C: 0.22%
[30]
  viability, T/C: 0.18%
[31]
  viability, T/C: 0.5%
[32]
  viability, T/C: 0.21%
[11]
  viability, T/C: 0.08%
[12]
  viability, T/C: 0.14%
[33]
  viability, T/C: 0.14%
[34]
  viability, T/C: 0.15%
[35]
  viability, T/C: 0.29%
[36]
  viability, T/C: 0.17%
